Results from patent publication US20250027041A1, “COMPOSITION FOR INDUCING TRANSDIFFERENTIATION AND STEM CELLS TREATED THEREWITH” (YJ CERAPEUTICS INC., priority 2021, published 2025).

Tested on: UCB-MSCs
Test: CellTiter-Glo proliferation assay
Type: cell-based, human
Conditions: 10, 20, or 40 μM; 3 or 5 days
Description: Thereafter, 100 μl of a CellTiter-Glo reagent prepared by mixing a CellTiter-Glo Buffer with a CellTiter-Glo substrate was added to each well of a 96-well plate, covered with a plate cover, and incubated at room temperature for 30 minutes.

CCc1ccc(N(C(=O)COC)c2nc3cc(Cl)ccc3o2)cc1 [YJ102]
cell proliferation (CellTiter-Glo): reduced cell proliferation in a concentration-dependent manner
